Source: patent US10822318B2, “Lactone-based probes and methods of use thereof” (REGENTS OF THE UNIVERSITY OF MINNESOTA, priority 2017, dated 2020)

Experiments:
PBPs = assay: Gel-based analysis of PBP labeling by β-lactone probes in S. pneumoniae cells; assay type: cell-based; conditions: S. pneumoniae whole cells, probe 5 μg/ml, 20 min
Description: Strain IU1945, an unencapsulated derivative of serotype 2 S. pneumoniae strain D39, was grown statically in brain heart infusion (BHI) medium in 100×17 mm tubes by incubation in an atmosphere of 5% CO2 at 37° C. to an OD620 of ˜0.2. For labeling experiments, overnight cultures that were still in exponential phase (OD620=0.1-0.4) were diluted to OD620=0.002-0.004 and grown as above. Samples with OD620=0.15-0.20 were utilized in labeling experiments conducted as previously described (Kocaoglu, O, et al. (2013) Curr Protoc Chem Biol 5, 239), and summarized as follows: Cell pellets from 1.5 ml of S. pneumoniae cultures were harvested by centrifugation (16,100×g for 2 min at RT) and washed with phosphate buffered saline (PBS; pH 7.4). […] The protein concentration was measured by NanoDrop 1000 Spectrophotometer (Thermo Scientific) or NanoPhotometer P330 (IMPLEN). […] The protein bands were separated by gel electrophoresis for 1.5 h at 180 V, 400 mA, 60 W. The gel was rinsed with distilled water three times before fluorescence scanning. […]
After SDS-PAGE, labeled proteins were visualized at 50-μm resolution in gels using a Typhoon 9210 gel scanner (Amersham Biosciences) with 580-nm bandpass filter for TAMRA, 526-nm short-pass filter for fluorescein and BODIPY FL, and 670-nm bandpass filter for BODIPY 650/665. All gel images were analyzed using ImageJ software (National Institutes of Health). […]

PBP2x and PBP2b = assay: Dual-labeling experiments, 7FL followed by 8T; assay type: cell-based, S. pneumoniae; conditions: both 5 μg/mL for 20 minutes
Description: S. pneumoniae E193 (Δpbp1b) cells were grown in BHI broth at 37° C. in an atmosphere of 5% CO2 to reach an OD620 of 0.2-0.25. Cells from 1.5 ml of culture were harvested by centrifugation (16,100×g for 2 min at RT) and washed with 1 ml of PBS, pH 7.4. Cell pellets were resuspended in 50 μl of PBS containing 5 μg/ml lactone-L-Phe-FL (7FL) and incubated at RT for 20 min. Cells were then washed with 1 ml PBS prior to suspension in 50 μl of 5 μg/ml solution of Lac-D-Phe-TAMRA (8T) in PBS. After incubation for 20 min at RT, cells were washed and resuspended in 100 μl of PBS containing 10 mg/ml of lysozyme. Cell lysis and sample preparation for SDS PAGE was followed as described earlier.

Substance	PBPs labeled (gel-based labeling profile) (PBPs)	PBP visualized in dual labeling (PBP2x and PBP2b)
(2S, 3R)-β-lactone-D-Phe-TAMRA [Probe 8T]	PBP1b, PBP2x and PBP2b	PBP2b
(2S,3R)-β-lactone-L-Phe-fluorescein [Probe 7FL]	only PBP1b and PBP2x	PBP2x
